According to patent US12398154B2, “Azaquinazoline pan-KRas inhibitors” (Mirati Therapeutics, Inc., priority 2020, dated 2025):

What was measured:
[1] = biological target: KRas G12D (Homo sapiens, UniProt P01116, G12D); experiment: biochemical;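 note: TR-FRET displacement binding assay on KRas, read after a one-hour incubation at room temperature, IC50 fitted from percent-of-control values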
Method: (§1) The ability of a compound to bind to KRas was measured using a TR-FRET displacement assay. […] After a 60-minute incubation at room temperature, the reaction was measured using a BMG LABTECH CLARIO star Plus via TR-FRET. […] The POC values were fit to a 4-parameter IC50 equation and the IC50 value reported.

[2] = biological target: KRas G12V (Homo sapiens, UniProt P01116, G12V); experiment: biochemical;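 note: KRas binding measured by TR-FRET displacement at room temperature, IC50 fitted from percent of control values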
Sequence of KRas G12V (P01116 1-169 isoform P01116-2 G12V): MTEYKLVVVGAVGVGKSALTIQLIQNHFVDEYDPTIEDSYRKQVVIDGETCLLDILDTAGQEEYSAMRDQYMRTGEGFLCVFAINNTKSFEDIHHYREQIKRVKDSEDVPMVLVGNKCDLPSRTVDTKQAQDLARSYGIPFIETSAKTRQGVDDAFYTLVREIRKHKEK
Method: as §1

[3] = biological target: KRas G12R (Homo sapiens, UniProt P01116, G12R); experiment: biochemical;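 note: TR-FRET displacement assay of compound binding to KRas, read after one hour at room temperature, potency from a four-parameter fit of percent-of-control values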
Sequence of KRas G12R (P01116 1-169 isoform P01116-2 G12R): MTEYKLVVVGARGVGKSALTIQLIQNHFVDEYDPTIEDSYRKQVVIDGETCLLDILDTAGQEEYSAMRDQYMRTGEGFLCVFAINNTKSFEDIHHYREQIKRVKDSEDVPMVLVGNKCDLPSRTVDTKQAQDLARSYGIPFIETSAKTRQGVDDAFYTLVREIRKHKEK
Method: as §1

[4] = tested on: pERK in MKN1 cells; experiment: Inhibition of KRas phosphorylation of ERK (Cisbio HTRF pERK assay); details: Homo sapiens, MKN-1, 3 h, read-out: Inhibition (HTRF IC50) of KRas-mediated Phosphorylation of ERK, MKN1
[5] = tested on: pERK in PSN1 cells; experiment: as above; details: Homo sapiens, PSN1, 3 h, read-out: Inhibition (HTRF IC50) of KRas-mediated Phosphorylation of ERK, PSN1
[6] = tested on: pERK in ASPC1 cells; experiment: as above; details: Homo sapiens, ASPC1, read-out: Inhibition (HTRF IC50) of KRas-mediated Phosphorylation of ERK, AsPC-1
[7] = tested on: pERK in H727 cells; experiment: as above; details: Homo sapiens, NCI-H727, read-out: Inhibition (HTRF IC50) of KRas-mediated Phosphorylation of ERK, H727

Sequence of KRas G12D (P01116 1-169 isoform P01116-2 G12D): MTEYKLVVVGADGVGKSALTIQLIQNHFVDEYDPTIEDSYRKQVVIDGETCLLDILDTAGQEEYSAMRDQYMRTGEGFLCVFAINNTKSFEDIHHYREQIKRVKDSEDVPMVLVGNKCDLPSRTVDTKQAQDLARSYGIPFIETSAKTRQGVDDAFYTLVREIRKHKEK

Row | SMILES | IC50 [1] | IC50 [2] | IC50 [3] | IC50 [4] | IC50 [5] | IC50 [6] | IC50 [7]
1 | CCc1c(F)ccc2cc(O)cc(-c3ncc4c(NCC5CCNC5=O)nc(OC[C@@]56CCCN5C[C@H](F)C6)nc4c3F)c12 (stereo partly drawn) [Example 368, 3-(((7-(8-ethyl-7-fluoro-3-hydroxynaphthalen-1-yl)-8-fluoro-2-(((2R,7aS)-2-fluorotetrahydro-1H-pyrrolizin-7a(5H)-yl)methoxy)pyrido[4,3-d]pyrimidin-4-yl)amino)methyl)pyrrolidin-2-one] | 4 nM | 24 nM | 11 nM | 191 nM | ≥ 10000 nM | 4680 nM | 617 nM
2 | CCc1c(F)ccc2cc(O)cc(-c3ncc4c(NCC5NC(=O)NC5=O)nc(OC[C@@]56CCCN5C[C@H](F)C6)nc4c3F)c12 (stereo partly drawn) [Example 369, 5-(((7-(8-ethyl-7-fluoro-3-hydroxynaphthalen-1-yl)-8-fluoro-2-(((2R,7aS)-2-fluorohexahydro-1H-pyrrolizin-7a-yl)methoxy)pyrido[4,3-d]pyrimidin-4-yl)amino)methyl)imidazolidine-2,4-dione] | 5 nM | 3 nM | 4 nM | 294 nM | ≥ 10000 nM | 1340 nM | 471 nM
3 | CCc1c(F)ccc2cc(O)cc(-c3ncc4c(NCC5CNC(=O)N5)nc(OC[C@@]56CCCN5C[C@H](F)C6)nc4c3F)c12 (stereo partly drawn) [Example 370, 4-(((7-(8-ethyl-7-fluoro-3-hydroxynaphthalen-1-yl)-8-fluoro-2-(((2R,7aS)-2-fluorohexahydro-1H-pyrrolizin-7a-yl)methoxy)pyrido[4,3-d]pyrimidin-4-yl)amino)methyl)imidazolidin-2-one] | 11 nM | ≤ 2 nM | 5 nM | 330 nM | ≥ 10000 nM | 2980 nM | 516 nM
4 | CCc1c(F)ccc2cc(O)cc(-c3ncc4c(NCCC5CCC(=O)N5)nc(OC[C@@]56CCCN5C[C@H](F)C6)nc4c3F)c12 (stereo partly drawn) [Example 377, 5-(2-((7-(8-ethyl-7-fluoro-3-hydroxynaphthalen-1-yl)-8-fluoro-2-(((2R,7aS)-2-fluorotetrahydro-1H-pyrrolizin-7a(5H)-yl)methoxy)pyrido[4,3-d]pyrimidin-4-yl)amino)ethyl)pyrrolidin-2-one] | ≤ 2 nM | 3 nM | 12 nM | 2300 nM | ≥ 10000 nM | ≥ 10000 nM | 7780 nM
5 | CCc1c(F)ccc2cc(O)cc(-c3ncc4c(NCCC5CNC(=O)N5)nc(OC[C@@]56CCCN5C[C@H](F)C6)nc4c3F)c12 (stereo partly drawn) [Example 382, 4-(2-((7-(8-ethyl-7-fluoro-3-hydroxynaphthalen-1-yl)-8-fluoro-2-(((2R,7aS)-2-fluorohexahydro-1H-pyrrolizin-7a-yl)methoxy)pyrido[4,3-d]pyrimidin-4-yl)amino)ethyl) imidazolidin-2-one] | 9 nM | ≤ 2 nM | 3 nM | 781 nM | ≥ 10000 nM | ≥ 10000 nM | 5900 nM
6 | CCc1c(F)ccc2cc(O)cc(-c3ncc4c(NCc5cc(C(N)=O)nn5C)nc(OC[C@@]56CCCN5C[C@H](F)C6)nc4c3F)c12 [Example 385, 5-(((7-(8-ethyl-7-fluoro-3-hydroxynaphthalen-1-yl)-8-fluoro-2-(((2R,7aS)-2-fluorohexahydro-1H-pyrrolizin-7a-yl)methoxy)pyrido[4,3-d]pyrimidin-4-yl)amino)methyl)-1-methyl-1H-pyrazole-3-carboxamide] | ≤ 2 nM | ≤ 2 nM | ≤ 2 nM | 421 nM | ≥ 10000 nM | ≥ 10000 nM | 4650 nM

Continued, values first:

Row | IC50 [1] | IC50 [2] | IC50 [3] | IC50 [4] | IC50 [5] | IC50 [6] | IC50 [7] | SMILES
7 | 138 nM | 83 nM | 94 nM | 796 nM | ≥ 10000 nM | 3410 nM | 4820 nM | CCc1c(F)ccc2cc(O)cc(-c3ncc4c(N5CCCC6(CC(F)C6)C5)nc(OC[C@@]56CCCN5C[C@H](F)C6)nc4c3F)c12 (stereo partly drawn) [Example 344, 5-ethyl-6-fluoro-4-(8-fluoro-4-(2-fluoro-6-azaspiro[3.5]nonan-6-yl)-2-(((2R,7aS)-2-fluorohexahydro-1H-pyrrolizin-7a-yl)methoxy)pyrido[4,3-d]pyrimidin-7-yl)naphthalen-2-ol]
8 | ≤ 2 nM | ≤ 2 nM | ≤ 2 nM | 46 nM | ≥ 10000 nM | 948 nM | 1270 nM | CCc1c(F)ccc2cc(O)cc(-c3ncc4c(N5CCCC(NS(N)(=O)=O)C5)nc(OC[C@@]56CCCN5C[C@H](F)C6)nc4c3F)c12 (stereo partly drawn) [Example 352, 7-(8-ethyl-7-fluoro-3-hydroxy-1-naphthyl)-8-fluoro-2-(((2R,7aS)-2-fluorohexahydro-1H-pyrrolizin-7a-yl)methoxy)-4-[3-(sulfamoylamino)-1-piperidyl]pyrido[4,3-d]pyrimidine]
9 | 201 nM | 57 nM | 10 nM | ≥ 10000 nM | ≥ 10000 nM | ≥ 10000 nM | ≥ 10000 nM | CCc1c(F)ccc2cc(O)cc(-c3ncc4c(N5C[C@@H]6C(=O)NNC(=O)[C@@H]6C5)nc(OC[C@@]56CCCN5C[C@H](F)C6)nc4c3F)c12 [Example 363, (4aR,7aS)-6-(7-(8-ethyl-7-fluoro-3-hydroxynaphthalen-1-yl)-8-fluoro-2-(((2R,7aS)-2-fluorotetrahydro-1H-pyrrolizin-7a(5H)-yl)methoxy)pyrido[4,3-d]pyrimidin-4-yl)hexahydro-1H-pyrrolo[3,4-d]pyridazine-1,4(4aH)-dione]
10 | ≤ 2 nM | ≤ 2 nM | ≤ 2 nM | 299 nM | ≥ 10000 nM | 477 nM | 1380 nM | C#Cc1c(F)ccc2cc(O)cc(-c3ncc4c(N5CCCC6(CNC(=O)N6)C5)nc(OC[C@@]56CCCN5C[C@H](F)C6)nc4c3F)c12 (stereo partly drawn) [Example 395, 7-(7-(8-ethynyl-7-fluoro-3-hydroxynaphthalen-1-yl)-8-fluoro-2-(((2R,7aS)-2-fluorohexahydro-1H-pyrrolizin-7a-yl)methoxy)pyrido[4,3-d]pyrimidin-4-yl)-1,3,7-triazaspiro[4.5]decan-2-one]
11 | ≤ 2 nM | 3 nM | 3 nM | 525 nM | ≥ 10000 nM | 3080 nM | 7480 nM | C#Cc1c(F)ccc2cc(O)cc(-c3ncc4c(N5CCCC6(CNS(=O)(=O)N6)C5)nc(OC[C@@]56CCCN5C[C@H](F)C6)nc4c3F)c12 (stereo partly drawn) [Example 396, 7-(7-(8-ethynyl-7-fluoro-3-hydroxynaphthalen-1-yl)-8-fluoro-2-(((2R,7aS)-2-fluorohexahydro-1H-pyrrolizin-7a-yl)methoxy)pyrido[4,3-d]pyrimidin-4-yl)-2-thia-1,3,7-triazaspiro[4.5]decane 2,2-dioxide]
12 |  |  |  | 43 nM | ≥ 10000 nM | 987 nM | 503 nM | CCc1c(F)ccc2cc(O)cc(-c3ncc4c(N5C[C@H](CO)OC[C@](C)(O)C5)nc(OC[C@@]56CCCN5C[C@H](F)C6)nc4c3F)c12 [Example 497, (2R,6R)-4-(7-(8-ethyl-7-fluoro-3-hydroxynaphthalen-1-yl)-8-fluoro-2-(((2R,7aS)-2-fluorohexahydro-1H-pyrrolizin-7a-yl)methoxy)pyrido[4,3-d]pyrimidin-4-yl)-2-(hydroxymethyl)-6-methyl-1,4-oxazepan-6-ol]
